According to ChEMBL document CHEMBL5154877, “Novel Sphingosine Kinase 1 Inhibitor Suppresses Growth of Solid Tumor and Inhibits the Lung Metastasis of Triple-Negative Breast Cancer” (J Med Chem, 2022):
Activity calls are given as the source filed them. The calls are words filed in the database; no cut-off is given here.

How the values were obtained:
[1] = system: MDA-MB-231; test: Induction of apoptosis in human MDA-MB-231 cells assessed as necrotic cells at 30 uM incubated for 48 hrs by Annexin V-FITC/PI staining based flow cytometry (reference value: 1.42 %); assay type: functional
[2] = Toxicity in BALB/c mouse xenografted with human MDA-MB-231 cells assessed as body weight change at 100 mg/kg, ip administrated for 28 days; assay type: organism-based; settings: in vivo, 672 h, time 28 day
[3] = Half life in mouse at 2 mg/kg, iv; assay type: ADME, organism-based; settings: in vivo
[4] = AUClast in mouse at 20 mg/kg, po; assay type: ADME, organism-based; design: time 0 - last, dose 20 mg/kg, route po; settings: in vivo
[5] = system: MDA-MB-231; test: Antimetastatic activity against human MDA-MB-231 cells xenografted in BALB/c mouse assessed as decrease in plasma S1P levels at 100 mg/kg, ip for 28 days; assay type: functional, organism-based; settings: time 28.0 day
[6] = system: HT-29; test: Induction of cell cycle arrest at G0/G1 phase in human HT-29 cells assessed as reduction in cyclinD1 expression at 10 to 30 uM incubated for 24 hrs by Western blot analysis; assay type: functional, cell-based; settings: dose 10-30 µM
[7] = Half life in mouse at 20 mg/kg, po; assay type: ADME, organism-based; settings: in vivo
[8] = system: MDA-MB-231; test: Induction of apoptosis in human MDA-MB-231 cells assessed as viable cells at 30 uM incubated for 48 hrs by Annexin V-FITC/PI staining based flow cytometry (reference value: 94.3 %); assay type: functional; settings: read-out: Activity
[9] = Toxicity in BALB/c mouse xenografted with human HT-29 cells assessed as change in body weight at 50 mg/kg/day, ip for 3 weeks and measured every 3 days; assay type: organism-based; settings: in vivo, 504 h
[10] = system: MDA-MB-231; test: Antimetastatic activity against human MDA-MB-231 cells […] assessed as upregulation of phosphorylated beta-catenin at 30 uM incubated for 2 to 12 hrs by western blot analysis; assay type: functional, cell-based; settings: time 2-12 hrs
[11] = Tmax in mouse at 20 mg/kg, po; assay type: ADME, organism-based; settings: in vivo
[12] = AUClast in mouse at 2 mg/kg, iv; assay type: ADME, organism-based; design: time 0 - last, dose 2 mg/kg, route iv; settings: in vivo
[13] = system: MDA-MB-231; test: Antimetastatic activity against human MDA-MB-231 cells […] assessed as inhibition of FSCN1 phosphorylation at 30 uM incubated for 2 to 12 hrs by western blot analysis; assay type: functional, cell-based; settings: time 2-12 hrs
[14] = Half life in mouse at 10 mg/kg, ip; assay type: ADME, organism-based; settings: in vivo
[15] = system: MDA-MB-231; test: Antimetastatic activity against human MDA-MB-231 cells […] assessed as inhibition of NF-kappaB p65 phosphorylation at 30 uM incubated for 2 to 12 hrs by Western blot analysis; assay type: functional, cell-based; settings: time 2-12 hrs
[16] = system: MDA-MB-231; test: Induction of apoptosis in human MDA-MB-231 cells assessed as early apoptotic cells at 30 uM incubated for 48 hrs by Annexin V-FITC/PI staining based flow cytometry (reference value: 2.35 %); assay type: functional
[17] = system: MDA-MB-231; test: Antimetastatic activity against human MDA-MB-231 cells […] assessed as downregulation of MMP-9 at 30 uM incubated for 2 to 12 hrs by western blot analysis; assay type: functional, cell-based; settings: time 2-12 hrs
[18] = Toxicity in BALB/c mouse xenografted with human MDA-MB-231 cells assessed as change in body weight at 50 mg/kg/day, ip for 3 weeks and measured every 3 days; assay type: organism-based; settings: in vivo, 504 h
[19] = system: HT-29; test: Induction of cell cycle arrest at G0/G1 phase in human HT-29 cells assessed as decrease in p-Rb expression at 10 to 30 uM incubated for 24 hrs by Western blot analysis; assay type: functional, cell-based; settings: dose 10-30 µM
[20] = system: MDA-MB-231; test: Induction of apoptosis in human MDA-MB-231 cells assessed as late apoptotic cells at 10 uM incubated for 48 hrs by Annexin V-FITC/PI staining based flow cytometry (reference value: 1.96 %); assay type: functional
[21] = system: HT-29; test: Induction of cell cycle arrest at G0/G1 phase in human HT-29 cells assessed as reduction in cyclinE1 expression at 10 to 30 uM incubated for 24 hrs by Western blot analysis; assay type: functional, cell-based; settings: dose 10-30 µM
[22] = system: MDA-MB-231; test: Induction of apoptosis in human MDA-MB-231 cells assessed as late apoptotic cells at 30 uM incubated for 48 hrs by Annexin V-FITC/PI staining based flow cytometry (reference value: 1.96 %); assay type: functional
[23] = system: HT-29; test: Induction of cell cycle arrest in human HT-29 cells assessed as accumulation at G0/G1 phase at 10 uM incubated for 24 hrs by PI staining based flow cytometry; assay type: functional
[24] = system: MDA-MB-231; test: Antimigratory activity against human MDA-MB-231 cells assessed as inhibition of cell migration in human MDA-MB-231 cells at 40 uM incubated for 15 hrs by wound healing assay; assay type: functional, cell-based
[25] = system: MDA-MB-231; test: Induction of apoptosis in human MDA-MB-231 cells assessed as necrotic cells at 10 uM incubated for 48 hrs by Annexin V-FITC/PI staining based flow cytometry (reference value: 1.42 %); assay type: functional
[26] = system: MDA-MB-231; test: Induction of apoptosis in human MDA-MB-231 cells assessed as early apoptotic cells at 10 uM incubated for 48 hrs by Annexin V-FITC/PI staining based flow cytometry (reference value: 2.35 %); assay type: functional
[27] = system: HT-29; test: Induction of cell cycle arrest at G0/G1 phase in human HT-29 cells assessed as reduction in CDK6 expression at 10 to 30 uM incubated for 24 hrs by Western blot analysis; assay type: functional, cell-based; settings: dose 10-30 µM
[28] = Oral bioavailability in mouse at 20 mg/kg; assay type: ADME, organism-based; settings: in vivo
[29] = Clearance in mouse at 2 mg/kg, iv; assay type: ADME, organism-based; settings: in vivo
[30] = system: HT-29; test: Induction of cell cycle arrest at G0/G1 phase in human HT-29 cells assessed as reduction in cyclinA expression at 10 to 30 uM incubated for 24 hrs by Western blot analysis; assay type: functional, cell-based; settings: dose 10-30 µM
[31] = system: MDA-MB-231; test: Induction of apoptosis in human MDA-MB-231 cells assessed as viable cells at 10 uM incubated for 48 hrs by Annexin V-FITC/PI staining based flow cytometry (reference value: 94.3 %); assay type: functional; settings: read-out: Activity
[32] = system: MDA-MB-231; test: Antimigratory activity against human MDA-MB-231 cells assessed as reduction in cell migration at 40 uM incubated for 8 hrs by crystal violet staining microscopy based transwell migration assay; assay type: functional
[33] = system: HT-29; test: Antitumor activity against human HT-29 cells xenografted in BALB/c mouse assessed as tumor growth inhibition at 50 mg/kg/day, ip for 3 weeks and measured every 3 days by caliper method; assay type: functional, organism-based
[34] = system: HT-29; test: Induction of cell cycle arrest at G1 phase in human HT-29 cells assessed as increase in P21 expression at 30 uM incubated for 24 hrs by Western blot analysis; assay type: functional, cell-based
[35] = Cmax in mouse at 20 mg/kg, po; assay type: ADME, organism-based; design: dose 20 mg/kg, route po; settings: in vivo
[36] = target: T1, Sphingosine kinase 2 (Homo sapiens, UniProt Q9NRA0)
T1 sequence (Q9NRA0 whole entry): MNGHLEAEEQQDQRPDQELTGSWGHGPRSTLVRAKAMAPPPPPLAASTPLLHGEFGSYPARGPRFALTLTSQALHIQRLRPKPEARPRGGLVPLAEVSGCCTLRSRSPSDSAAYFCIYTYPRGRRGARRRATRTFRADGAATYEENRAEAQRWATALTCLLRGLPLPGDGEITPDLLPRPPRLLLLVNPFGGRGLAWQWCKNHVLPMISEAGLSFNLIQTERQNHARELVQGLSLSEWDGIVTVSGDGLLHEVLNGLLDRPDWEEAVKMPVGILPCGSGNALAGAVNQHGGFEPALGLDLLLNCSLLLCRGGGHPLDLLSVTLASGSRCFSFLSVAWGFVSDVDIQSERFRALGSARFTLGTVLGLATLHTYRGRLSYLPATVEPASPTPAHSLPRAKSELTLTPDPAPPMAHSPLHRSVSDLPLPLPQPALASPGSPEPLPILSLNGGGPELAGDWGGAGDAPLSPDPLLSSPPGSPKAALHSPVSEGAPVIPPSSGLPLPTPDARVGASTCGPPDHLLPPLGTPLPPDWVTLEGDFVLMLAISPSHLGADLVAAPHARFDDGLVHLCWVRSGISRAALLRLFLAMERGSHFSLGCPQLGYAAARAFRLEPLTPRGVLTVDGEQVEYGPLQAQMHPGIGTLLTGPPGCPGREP

For `Cc1cc(CS(=O)(=O)c2ccccc2)cc(OCc2ccc(CN3CCC[C@@H]3CO)cc2)c1`, the Activity [1] was 1.99%, the Activity [2] was “Non-Toxic” and the half-life [3] was 60.6 min. The AUC(0-t) [4] was 32.3 ng·h/mL, the Activity [5] was “Active” and the Activity [6] was “Active”. For the same molecule, the half-life [7] was 258 min, the viability at 30 µM [8] was 65.4% and the Activity [9] was “Non-Toxic”. The Activity [10] was “Active”, the Tmax [11] was 15 min and the AUC(0-t) [12] was 168 ng·h/mL. The Activity [13] was “Active”, the half-life [14] was 72 min and the Activity [15] was “Active”. For the same molecule, the Activity [16] was 25.2%, the Activity [17] was “Active” and the Activity [18] was “Non-Toxic”. For the same molecule, the Activity [19] was “Active”, the Activity [20] was 7.11% and the Activity [21] was “Active”. For the same molecule, the Activity [22] was 7.47%, the Activity [23] was “Active” and the Activity [24] was “Active”. The Activity [25] was 2.22%, the Activity [26] was 4.89% and the Activity [27] was “Active”. The bioavailability [28] was 1.92%, the clearance [29] was 207 mL/min/kg and the Activity [30] was “Active”. The viability at 10 µM [31] was 85.8%, the Activity [32] was “Active” and the Activity [33] was “Active”. The Activity [34] was “Active” and the Cmax [35] was 16.8 ng/mL.
`O=S(=O)(Cc1cc(OCc2ccc(CN3CCC[C@@H]3CO)cc2)cc(C(F)(F)F)c1)c1ccccc1` gave an IC50 [36] of over 10 µM.
